Results: the NIST ThermoML archive (doi:10.1021/je700042z)
Several values for one entry are separate records, joined by “and”; a condition that tells them apart may be missing. Equal values may be shown once.

Assay: cn = amount concentration of the nth substance listed, in mol/dm3
Details: 298.15 K, 101 kPa, Liquid

Compound: O=C(O)CC(=O)O [propanedioic acid] + O
- binary diffusion coefficient (c1 = 0.000124): 1.67e-09 m2/s and 1.68e-09 m2/s
- binary diffusion coefficient (c1 = 0.000252): 1.59e-09 m2/s and 1.61e-09 m2/s and 1.6e-09 m2/s
- binary diffusion coefficient (c1 = 0.000253): 1.61e-09 m2/s and 1.6e-09 m2/s and 1.59e-09 m2/s
- binary diffusion coefficient (c1 = 0.000378): 1.53e-09 m2/s and 1.52e-09 m2/s
- binary diffusion coefficient (c1 = 0.000379): 1.52e-09 m2/s
- binary diffusion coefficient (c1 = 0.000502): 1.49e-09 m2/s
- binary diffusion coefficient (c1 = 0.000627): 1.46e-09 m2/s and 1.45e-09 m2/s
- binary diffusion coefficient (c1 = 0.000751): 1.42e-09 m2/s
- binary diffusion coefficient (c1 = 0.000803): 1.4e-09 m2/s
- binary diffusion coefficient (c1 = 0.00138): 1.32e-09 m2/s and 1.33e-09 m2/s
- binary diffusion coefficient (c1 = 0.0019): 1.27e-09 m2/s
- binary diffusion coefficient (c1 = 0.0025): 1.23e-09 m2/s and 1.22e-09 m2/s
- binary diffusion coefficient (c1 = 0.0035): 1.19e-09 m2/s and 1.18e-09 m2/s
- binary diffusion coefficient (c1 = 0.00454): 1.16e-09 m2/s
- binary diffusion coefficient (c1 = 0.0046): 1.14e-09 m2/s and 1.15e-09 m2/s and 1.16e-09 m2/s
- binary diffusion coefficient (c1 = 0.00701): 1.11e-09 m2/s
- binary diffusion coefficient (c1 = 0.0101): 1.08e-09 m2/s
- binary diffusion coefficient (c1 = 0.0118): 1.07e-09 m2/s and 1.08e-09 m2/s
- binary diffusion coefficient (c1 = 0.015): 1.06e-09 m2/s and 1.07e-09 m2/s and 1.05e-09 m2/s
- binary diffusion coefficient (c1 = 0.0201): 1.03e-09 m2/s

Compound: O=[As](O)(O)O [arsenic acid] + O
- binary diffusion coefficient (c1 = 0.000125): 1.5e-09 m2/s and 1.49e-09 m2/s
- binary diffusion coefficient (c1 = 0.000407): 1.41e-09 m2/s
- binary diffusion coefficient (c1 = 0.000837): 1.35e-09 m2/s
- binary diffusion coefficient (c1 = 0.00101): 1.33e-09 m2/s and 1.32e-09 m2/s
- binary diffusion coefficient (c1 = 0.00206): 1.24e-09 m2/s
- binary diffusion coefficient (c1 = 0.00251): 1.21e-09 m2/s
- binary diffusion coefficient (c1 = 0.00351): 1.17e-09 m2/s
- binary diffusion coefficient (c1 = 0.00471): 1.13e-09 m2/s and 1.14e-09 m2/s
- binary diffusion coefficient (c1 = 0.00506): 1.12e-09 m2/s
- binary diffusion coefficient (c1 = 0.00701): 1.08e-09 m2/s and 1.09e-09 m2/s
- binary diffusion coefficient (c1 = 0.00825): 1.08e-09 m2/s and 1.07e-09 m2/s
- binary diffusion coefficient (c1 = 0.0119): 1.03e-09 m2/s and 1.04e-09 m2/s
- binary diffusion coefficient (c1 = 0.014): 1.02e-09 m2/s
